Measurements: PubChem BioAssay AID1996
Converted amounts (≈) assume the structure as drawn.

Conditions: buffer; pH 7.4; 200.0 µM
In the case of C=CCNC(=O)CN(Cc1ccccc1)S(=O)(=O)c1ccccc1, the solubility kinetic is reported as greater than 51.7 µg/mL.
Molecule O=C1CNC(=O)N1 has a solubility kinetic greater than 15 µg/mL.
CC(=O)c1c(OCC(=O)N(C)C2CCCCC2)ccc2c(C)cc(=O)oc12 showed a solubility kinetic greater than 55.7 µg/mL.
With CCN(CC)c1ccc(NC(=O)c2ccc(S(=O)(=O)N3CCOCC3)cc2)cc1 the solubility kinetic was 4.7 µg/mL (≈ 11.3 µM).
Work on CCN(C(=O)Nc1cccc(Cl)c1)c1ccccc1 yielded a solubility kinetic of 18.6 µg/mL (≈ 67.7 µM).
COc1cc(NC(=O)CN2C(=O)NC(CC(C)C)C2=O)cc(OC)c1OC (stereo not drawn) showed a solubility kinetic greater than 56.9 µg/mL.
Molecule O=C(C1CCC1)N1CCC(O)(c2cccc(F)c2)CC1 has a solubility kinetic of 39.4 µg/mL (≈ 142 µM).
CC(C)c1nc(Cl)c(C#N)c2c1COC(C)(C)C2 showed a solubility kinetic of 6.6 µg/mL (≈ 24.9 µM).
Molecule CN1CCN/C1=C(/C(Cl)=C(Cl)Cl)[N+](=O)[O-] has a solubility kinetic greater than 40.9 µg/mL.
With O=C(O)CCN1c2cccc3cccc(c23)S1(=O)=O the solubility kinetic was greater than 41.6 µg/mL.
Cc1c(S(=O)(=O)NCc2ccccc2)c(=O)n(C)c(=O)n1C showed a solubility kinetic greater than 48.5 µg/mL.
N#Cc1c(N2CCCC2)ccc(Br)c1Cl gave a solubility kinetic of less than 0.3 µg/mL.
Cc1ccccc1NC(=O)COC(=O)CC1CCCC1 gave a solubility kinetic greater than 41.3 µg/mL.
Molecule O=C(COc1cc(Cl)ccc1Cl)Nc1ccc2[nH]c(=O)[nH]c2c1 has a solubility kinetic of 2.7 µg/mL (≈ 7.67 µM).
Cn1c(N)c(C(=O)COC(=O)c2ccccc2C(=O)c2ccc(Cl)c([N+](=O)[O-])c2)c(=O)n(C)c1=O gave a solubility kinetic of 3.2 µg/mL (≈ 6.39 µM).
Work on COc1ccc(C(=O)C2CCN(CC(=O)Nc3ccccc3F)CC2)cc1 yielded a solubility kinetic of 4.5 µg/mL (≈ 12.1 µM).
For C=CC(=O)NN(C)c1ncc(C(F)(F)F)cc1Cl, the solubility kinetic was greater than 41.9 µg/mL.
With O=C(Nc1ccccc1F)c1ccccc1C(=O)Nc1ccccc1F the solubility kinetic was 32.5 µg/mL (≈ 92.2 µM).
C=CCNC(=O)COC(=O)c1nc2nccc(C)n2n1 showed a solubility kinetic greater than 41.3 µg/mL.
In the case of COc1ccc2c(c1)c(C(=O)CN1CCc3ccccc3C1)c(C)n2C, the solubility kinetic is reported as 29.6 µg/mL (≈ 84.9 µM).
With CCOC(=O)C1CCN(S(=O)(=O)c2ccc3c4c(cccc24)C(=O)N3CC)CC1 the solubility kinetic was 10.4 µg/mL (≈ 25 µM).
In the case of Nc1ccc(OCc2ccco2)cc1, the solubility kinetic is reported as 19.5 µg/mL (≈ 103 µM).
CC(=O)c1cn(CC(=O)NCCc2c[nH]c3ccccc23)c2ccccc12 showed a solubility kinetic of 2.6 µg/mL (≈ 7.23 µM).
For C=C(C)CN1C(=O)C2(OCCO2)c2cc(Br)ccc21, the solubility kinetic was 41.1 µg/mL (≈ 127 µM).
For C=CCN(Cc1ccc(Cl)s1)C(=O)c1ccc(F)c(S(=O)(=O)N2CCOCC2)c1, the solubility kinetic was 23.8 µg/mL (≈ 51.9 µM).
For COCCCNC(=S)Nc1ccc(N2CCCCC2)cc1, the solubility kinetic was greater than 46.1 µg/mL.
CN(C)C(CNC(=O)c1cccc(C#N)c1)c1ccco1 (stereo not drawn) showed a solubility kinetic of 39.3 µg/mL (≈ 139 µM).
For CC(C)(C)NC(=O)N1c2ccccc2Sc2ccccc21, the solubility kinetic was 23 µg/mL (≈ 77.1 µM).
Molecule CN(CC(=O)Nc1ccc(F)cc1)CC(=O)N1CCCCC1 has a solubility kinetic greater than 46.1 µg/mL.
Work on CC(C)(C)NC(=O)CN(Cc1ccccc1)S(=O)(=O)c1ccccc1 yielded a solubility kinetic of 38.7 µg/mL (≈ 107 µM).
Cc1nc(SCC(=O)Nc2ccccc2Cl)c2c(C)c(C)sc2n1 showed a solubility kinetic of 3.9 µg/mL (≈ 10.3 µM).
Work on C=CCN=C1S/C(=C\N(C)C)C(=O)N1S(=O)(=O)c1ccc(C)cc1 yielded a solubility kinetic of 2.8 µg/mL (≈ 7.66 µM).
Molecule CCn1c(C)nc2cc(C#N)ccc21 has a solubility kinetic greater than 27.8 µg/mL.
COc1ccc(CSCC(=O)NCCC(C)C)cc1 showed a solubility kinetic greater than 42.2 µg/mL.
For NS(=O)(=O)c1ccc(NC(=O)CNC(=O)c2ccc3c(c2)OCO3)cc1, the solubility kinetic was 10 µg/mL (≈ 26.5 µM).
In the case of COc1ccc(NC(=O)c2cc(S(=O)(=O)N3CCOCC3)ccc2C)cc1S(=O)(=O)N1CCOCC1, the solubility kinetic is reported as greater than 80.9 µg/mL.
Molecule O=C(Cc1ccsc1)NCC(=O)Nc1ccc(F)c(F)c1 has a solubility kinetic greater than 46.5 µg/mL.
With O=C(Cc1cccs1)NC(Cc1c[nH]c2ccccc12)C(=O)O (stereo not drawn) the solubility kinetic was greater than 49.3 µg/mL.
Molecule O=C(NCCOc1ccc(Cl)cc1)C1CCCCC1 has a solubility kinetic of 14.9 µg/mL (≈ 52.9 µM).
Cc1ccc(NC(=O)c2ccc3nsnc3c2)c(Cl)c1 showed a solubility kinetic of 0.5 µg/mL (≈ 1.65 µM).
CC(CCc1ccccc1)NC(=O)C1CC1 (stereo not drawn) gave a solubility kinetic greater than 32.6 µg/mL.
For O=C(COC(=O)c1ccc([N+](=O)[O-])cc1)NCCC1=CCCCC1, the solubility kinetic was 3.1 µg/mL (≈ 9.33 µM).
In the case of CN(C)C(=O)c1ccc(NC(=O)c2ccccc2-c2ccccc2)cc1, the solubility kinetic is reported as greater than 51.7 µg/mL.
With CCC(NC(C)C)C(O)c1ccc(O)c(O)c1.CS(=O)(=O)O (stereo not drawn) the solubility kinetic was greater than 50.3 µg/mL.
For CCCCCC1=NN2C(=O)CC(=O)N=C2S1, the solubility kinetic was greater than 35.9 µg/mL.
For Cc1ccccc1OCCC(=O)N1CCN(S(=O)(=O)c2ccccc2F)CC1, the solubility kinetic was 38.5 µg/mL (≈ 94.7 µM).
COc1ccc(-c2ncncc2-c2ccccc2)c(O)c1 gave a solubility kinetic of 11.6 µg/mL (≈ 41.7 µM).
For Cc1nn(CC(=O)N(CC(C)C)C2CCS(=O)(=O)C2)c(C)c1[N+](=O)[O-] (stereo not drawn), the solubility kinetic was greater than 55.9 µg/mL.
With COc1ccccc1/C=C/C(=O)OCC(=O)NC1CCS(=O)(=O)C1 (stereo not drawn) the solubility kinetic was greater than 53 µg/mL.
O=C(Nc1ccccc1F)c1ccc(CN2CCN(c3ccccc3)CC2)cc1 gave a solubility kinetic of 4.1 µg/mL (≈ 10.5 µM).
Work on COc1ccc(OC)c(C2NC(=O)CCC2[N+](=O)[O-])c1 (stereo not drawn) yielded a solubility kinetic of 40.1 µg/mL (≈ 143 µM).
With Cc1ccc(C)n1-c1cc([N+](=O)[O-])ccc1-n1ccnc1 the solubility kinetic was 35.9 µg/mL (≈ 127 µM).
In the case of CNC(=O)c1ccc(NC(=O)/C=C/c2cccc(F)c2)cc1, the solubility kinetic is reported as 1.4 µg/mL (≈ 4.69 µM).
CC(C)CNS(=O)(=O)c1cc2c3c(c1)CCC(=O)N3CCC2 showed a solubility kinetic greater than 48.4 µg/mL.
With O=C(O)c1ccc(NC2CC(=O)N(Cc3ccccc3)C2=O)cc1 (stereo not drawn) the solubility kinetic was greater than 48.7 µg/mL.
Cc1ccc(CC2C(=O)N(c3cc(C)ccc3C)C(=O)C2C)cc1 (stereo not drawn) gave a solubility kinetic of 4.6 µg/mL (≈ 14.3 µM).
With CCOC(=O)c1cc(-c2csc(-c3ccc(C(C)(C)C)cc3)n2)on1 the solubility kinetic was 0.4 µg/mL (≈ 1.12 µM).
In the case of NS(=O)(=O)c1cccc(NC(=O)C2CC(=O)N(Cc3ccco3)C2)c1 (stereo not drawn), the solubility kinetic is reported as greater than 54.5 µg/mL.
